Results from ChEMBL document CHEMBL4316596, “Antimicrobial Peptides with High Proteolytic Resistance for Combating Gram-Negative Bacteria” (J Med Chem, 2019).

Tests used:
Escherichia coli [1] = experiment: Antimicrobial activity against Escherichia coli ATCC 25922 after 24 hrs by NCCLS-protocol based assay; type: functional; settings: ATCC 25922, 24 h
Escherichia coli [2] = experiment: Antimicrobial activity against Escherichia coli UB1005 after 24 hrs by NCCLS-protocol based assay; type: functional; settings: UB1005, 24 h
Escherichia coli [3] = experiment: Antimicrobial activity against Escherichia coli 078 after 24 hrs by NCCLS-protocol based assay; type: functional; settings: Escherichia coli, 078, 24 h
Escherichia coli [4] = experiment: Antimicrobial activity against Escherichia coli K88 after 24 hrs by NCCLS-protocol based assay; type: functional; settings: K88, 24 h
Escherichia coli [5] = experiment: Antimicrobial activity against Escherichia coli K99 after 24 hrs by NCCLS-protocol based assay; type: functional; settings: K99, 24 h
Pseudomonas aeruginosa [6] = experiment: Antimicrobial activity against Pseudomonas aeruginosa ATCC 27853 after 24 hrs by NCCLS-protocol based assay; type: functional; settings: ATCC 27853, 24 h
Pseudomonas aeruginosa [7] = experiment: Antimicrobial activity against Pseudomonas aeruginosa PAO1 after 24 hrs by NCCLS-protocol based assay; type: functional; settings: PAO1, 24 h
Pseudomonas aeruginosa [8] = experiment: Antimicrobial activity against Pseudomonas aeruginosa CICC 21630 clinical isolates after 24 hrs by NCCLS-protocol based assay; type: functional; settings: CICC 21630, 24 h
Pseudomonas aeruginosa [9] = experiment: Antimicrobial activity against Pseudomonas aeruginosa 26305 clinical isolates after 24 hrs by NCCLS-protocol based assay; type: functional; settings: Pseudomonas aeruginosa, 26305, 24 h
Pseudomonas aeruginosa [10] = experiment: Antimicrobial activity against Pseudomonas aeruginosa CICC 21625 clinical isolates after 24 hrs by NCCLS-protocol based assay; type: functional; settings: CICC 21625, 24 h
Pseudomonas aeruginosa [11] = experiment: Antimicrobial activity against Pseudomonas aeruginosa 25349 clinical isolates after 24 hrs by NCCLS-protocol based assay; type: functional; settings: Pseudomonas aeruginosa, 25349, 24 h
Salmonella typhimurium [12] = experiment: Antimicrobial activity against Salmonella typhimurium ATCC 14028 after 24 hrs by NCCLS-protocol based assay; type: functional, Salmonella enterica subsp. enterica serovar Typhimurium; settings: Salmonella enterica, ATCC 14028, 24 h
Salmonella typhimurium [13] = experiment: Antimicrobial activity against Salmonella typhimurium C7731 after 24 hrs by NCCLS-protocol based assay; type: functional, Salmonella enterica subsp. enterica serovar Typhimurium; settings: Salmonella enterica, C7731, 24 h
[14] = Antimicrobial activity against Salmonella pullorum C7913 after 24 hrs by NCCLS-protocol based assay; type: functional, Salmonella enterica subsp. enterica serovar Pullorum; settings: Salmonella enterica, C7913, 24 h
Acinetobacter baumannii [15] = experiment: Antimicrobial activity against Acinetobacter baumannii after 24 hrs by NCCLS-protocol based assay; type: functional
Klebsiella pneumoniae [16] = experiment: Antimicrobial activity against Klebsiella pneumoniae after 24 hrs by NCCLS-protocol based assay; type: functional
Escherichia coli [17] = experiment: Bactericidal activity against Escherichia coli ATCC 25922 incubated for 4 hrs followed by culture spread on agar plates and cultured overnight; type: functional; settings: ATCC 25922, 4 h, read-out: MBC>99.9
Escherichia coli [18] = experiment: Bactericidal activity against Escherichia coli ATCC 25922 incubated for 4 hrs followed by culture spread on agar plates and cultured overnight in presence of NaCl; type: functional; settings: ATCC 25922, 4 h, read-out: MBC>99.9
Escherichia coli [19] = experiment: Bactericidal activity against Escherichia coli ATCC 25922 incubated for 4 hrs followed by culture spread on agar plates and cultured overnight in presence of KCl; type: functional; settings: ATCC 25922, 4 h, read-out: MBC>99.9
Escherichia coli [20] = experiment: Bactericidal activity against Escherichia coli ATCC 25922 incubated for 4 hrs followed by culture spread on agar plates and cultured overnight in presence of CaCl2; type: functional; settings: ATCC 25922, 4 h, read-out: MBC>99.9
Escherichia coli [21] = experiment: Bactericidal activity against Escherichia coli ATCC 25922 incubated for 4 hrs followed by culture spread on agar plates and cultured overnight in presence of ZnCl2; type: functional; settings: ATCC 25922, 4 h, read-out: MBC>99.9
Escherichia coli [22] = experiment: Bactericidal activity against Escherichia coli ATCC 25922 incubated for 4 hrs followed by culture spread on agar plates and cultured overnight in presence of FeCl3; type: functional; settings: ATCC 25922, 4 h, read-out: MBC>99.9
Escherichia coli [23] = experiment: Bactericidal activity against Escherichia coli ATCC 25922 incubated for 4 hrs followed by culture spread on agar plates and cultured overnight in presence of NH4Cl; type: functional; settings: ATCC 25922, 4 h, read-out: MBC>99.9
Escherichia coli [24] = experiment: Bactericidal activity against Escherichia coli ATCC 25922 incubated for 4 hrs followed by culture spread on agar plates and cultured overnight in presence of MgCl2; type: functional; settings: ATCC 25922, 4 h, read-out: MBC>99.9
Escherichia coli [25] = experiment: Bactericidal activity against Escherichia coli ATCC 25922 incubated for 4 hrs followed by culture spread on agar plates and cultured overnight in presence of 50% serum albumin; type: functional; settings: ATCC 25922, 4 h, read-out: MBC>99.9
Escherichia coli [26] = experiment: Bactericidal activity against Escherichia coli ATCC 25922 incubated for 4 hrs followed by culture spread on agar plates and cultured overnight in presence of 25% serum albumin; type: functional; settings: ATCC 25922, 4 h, read-out: MBC>99.9
Escherichia coli [27] = experiment: Bactericidal activity against Escherichia coli ATCC 25922 incubated for 4 hrs followed by culture spread on agar plates and cultured overnight in presence of 12.5% serum albumin; type: functional; settings: ATCC 25922, 4 h, read-out: MBC>99.9
Escherichia coli [28] = experiment: Bactericidal activity against Escherichia coli UB1005 incubated for 4 hrs followed by culture spread on agar plates and cultured overnight; type: functional; settings: UB1005, 4 h, read-out: MBC>99.9
Escherichia coli [29] = experiment: Bactericidal activity against Escherichia coli 078 incubated for 4 hrs followed by culture spread on agar plates and cultured overnight; type: functional; settings: Escherichia coli, 078, 4 h; read-out: MBC>99.9
Escherichia coli [30] = experiment: Bactericidal activity against Escherichia coli K88 incubated for 4 hrs followed by culture spread on agar plates and cultured overnight; type: functional; settings: K88, 4 h, read-out: MBC>99.9
Escherichia coli [31] = experiment: Bactericidal activity against Escherichia coli K99 incubated for 4 hrs followed by culture spread on agar plates and cultured overnight; type: functional; settings: K99, 4 h, read-out: MBC>99.9
Pseudomonas aeruginosa [32] = experiment: Bactericidal activity against Pseudomonas aeruginosa ATCC 27853 incubated for 4 hrs followed by culture spread on agar plates and cultured overnight; type: functional; settings: ATCC 27853, 4 h, read-out: MBC>99.9
Pseudomonas aeruginosa [33] = experiment: Bactericidal activity against Pseudomonas aeruginosa PAO1 incubated for 4 hrs followed by culture spread on agar plates and cultured overnight; type: functional; settings: PAO1, 4 h, read-out: MBC>99.9
Pseudomonas aeruginosa [34] = experiment: Bactericidal activity against Pseudomonas aeruginosa CICC 21630 clinical isolates incubated for 4 hrs followed by culture spread on agar plates and cultured overnight; type: functional; settings: CICC 21630, 4 h, read-out: MBC>99.9
Pseudomonas aeruginosa [35] = experiment: Bactericidal activity against Pseudomonas aeruginosa 26305 clinical isolates incubated for 4 hrs followed by culture spread on agar plates and cultured overnight; type: functional; settings: Pseudomonas aeruginosa, 26305, 4 h; read-out: MBC>99.9
Pseudomonas aeruginosa [36] = experiment: Bactericidal activity against Pseudomonas aeruginosa CICC 21625 clinical isolates incubated for 4 hrs followed by culture spread on agar plates and cultured overnight; type: functional; settings: CICC 21625, 4 h, read-out: MBC>99.9
Pseudomonas aeruginosa [37] = experiment: Bactericidal activity against Pseudomonas aeruginosa 25349 clinical isolates incubated for 4 hrs followed by culture spread on agar plates and cultured overnight; type: functional; settings: Pseudomonas aeruginosa, 25349, 4 h; read-out: MBC>99.9
Salmonella typhimurium [38] = experiment: Bactericidal activity against Salmonella typhimurium ATCC 14028 incubated for 4 hrs followed by culture spread on agar plates and cultured overnight; type: functional, Salmonella enterica subsp. enterica serovar Typhimurium; settings: Salmonella enterica, ATCC 14028, 4 h; read-out: MBC>99.9
Salmonella typhimurium [39] = experiment: Bactericidal activity against Salmonella typhimurium C7731 incubated for 4 hrs followed by culture spread on agar plates and cultured overnight; type: functional, Salmonella enterica subsp. enterica serovar Typhimurium; settings: Salmonella enterica, C7731, 4 h; read-out: MBC>99.9
[40] = Bactericidal activity against Salmonella pullorum C7913 incubated for 4 hrs followed by culture spread on agar plates and cultured overnight; type: functional, Salmonella enterica subsp. enterica serovar Pullorum; settings: Salmonella enterica, C7913, 4 h; read-out: MBC>99.9
Acinetobacter baumannii [41] = experiment: Bactericidal activity against Acinetobacter baumannii incubated for 4 hrs followed by culture spread on agar plates and cultured overnight; type: functional; settings: read-out: MBC>99.9
Klebsiella pneumoniae [42] = experiment: Bactericidal activity against Klebsiella pneumoniae incubated for 4 hrs followed by culture spread on agar plates and cultured overnight; type: functional; settings: read-out: MBC>99.9

Which MIC95 (Escherichia coli [1]) does the source give for H-IKPIIKPIIKPIIKPIIKPIIKPI-NH2 here?
The MIC95 was 16 µM.

What about the MIC95 (Escherichia coli [2]) of the same substance?
The MIC95 was 16 µM.

And the MIC95 (Escherichia coli [3])?
The MIC95 was 64 µM.

What about the MIC95 (Escherichia coli [4]) of the same substance?
Its MIC95 is 4 µM.

And the MIC95 (Escherichia coli [5])?
Its MIC95 is 8 µM.

And the MIC95 (Pseudomonas aeruginosa [6])?
Its MIC95 is over 64 µM.

What about the MIC95 (Pseudomonas aeruginosa [7]) of the same substance?
Its MIC95 is over 64 µM.

And the MIC95 (Pseudomonas aeruginosa [8])?
The MIC95 was over 64 µM.

What about the MIC95 (Pseudomonas aeruginosa [9]) of the same substance?
Its MIC95 is over 64 µM.

What about the MIC95 (Pseudomonas aeruginosa [10]) of the same substance?
Its MIC95 is over 64 µM.

And the MIC95 (Pseudomonas aeruginosa [11])?
Its MIC95 is over 64 µM.

And the MIC95 (Salmonella typhimurium [12])?
Its MIC95 is 64 µM.

What about the MIC95 (Salmonella typhimurium [13]) of the same substance?
The MIC95 was over 64 µM.

And the MIC95 [14]?
The MIC95 was 64 µM.

What about the MIC95 (Acinetobacter baumannii [15]) of the same substance?
Its MIC95 is 16 µM.

What about the MIC95 (Klebsiella pneumoniae [16]) of the same substance?
The MIC95 was over 64 µM.

What about the MBC (Escherichia coli [17]) of the same substance?
The MBC was 32 µM.

What about the MBC (Escherichia coli [18]) of the same substance?
The MBC was over 128 µM.

And the MBC (Escherichia coli [19])?
Its MBC is over 128 µM.

What about the MBC (Escherichia coli [20]) of the same substance?
Its MBC is over 128 µM.

What about the MBC (Escherichia coli [21]) of the same substance?
The MBC was over 128 µM.

What about the MBC (Escherichia coli [22]) of the same substance?
The MBC was over 128 µM.

And the MBC (Escherichia coli [23])?
The MBC was over 128 µM.

And the MBC (Escherichia coli [24])?
The MBC was over 128 µM.

And the MBC (Escherichia coli [25])?
The MBC was over 128 µM.

What about the MBC (Escherichia coli [26]) of the same substance?
Its MBC is over 128 µM.

And the MBC (Escherichia coli [27])?
Its MBC is over 128 µM.

And the MBC (Escherichia coli [28])?
The MBC was 32 µM.

And the MBC (Escherichia coli [29])?
The MBC was over 64 µM.

And the MBC (Escherichia coli [30])?
The MBC was 8 µM.

What about the MBC (Escherichia coli [31]) of the same substance?
The MBC was 16 µM.

What about the MBC (Pseudomonas aeruginosa [32]) of the same substance?
Its MBC is over 64 µM.

What about the MBC (Pseudomonas aeruginosa [33]) of the same substance?
Its MBC is over 64 µM.

And the MBC (Pseudomonas aeruginosa [34])?
Its MBC is over 64 µM.

And the MBC (Pseudomonas aeruginosa [35])?
Its MBC is over 64 µM.

What about the MBC (Pseudomonas aeruginosa [36]) of the same substance?
The MBC was over 64 µM.

What about the MBC (Pseudomonas aeruginosa [37]) of the same substance?
Its MBC is over 64 µM.

What about the MBC (Salmonella typhimurium [38]) of the same substance?
Its MBC is over 64 µM.

What about the MBC (Salmonella typhimurium [39]) of the same substance?
The MBC was over 64 µM.

What about the MBC [40] of the same substance?
Its MBC is over 64 µM.

And the MBC (Acinetobacter baumannii [41])?
The MBC was 16 µM.

And the MBC (Klebsiella pneumoniae [42])?
Its MBC is over 64 µM.

What does the source list for H-VKPVVKPVVKPVVKPVVKPVVKPV-NH2?
MIC95 (Escherichia coli [1]): > 64 µM; MIC95 (Escherichia coli [2]): > 64 µM; MIC95 (Escherichia coli [3]): > 64 µM; MIC95 (Escherichia coli [4]): > 64 µM; MIC95 (Escherichia coli [5]): > 64 µM; MIC95 (Pseudomonas aeruginosa [6]): > 64 µM; MIC95 (Pseudomonas aeruginosa [7]): > 64 µM; MIC95 (Pseudomonas aeruginosa [8]): > 64 µM; MIC95 (Pseudomonas aeruginosa [9]): > 64 µM; MIC95 (Pseudomonas aeruginosa [10]): > 64 µM; MIC95 (Pseudomonas aeruginosa [11]): > 64 µM; MIC95 (Salmonella typhimurium [12]): > 64 µM; MIC95 (Salmonella typhimurium [13]): > 64 µM; MIC95 [14]: > 64 µM; MIC95 (Acinetobacter baumannii [15]): > 64 µM; MIC95 (Klebsiella pneumoniae [16]): > 64 µM; MBC (Escherichia coli [17]): > 64 µM; MBC (Escherichia coli [28]): > 64 µM; MBC (Escherichia coli [29]): > 64 µM; MBC (Escherichia coli [30]): > 64 µM; MBC (Escherichia coli [31]): > 64 µM; MBC (Pseudomonas aeruginosa [32]): > 64 µM; MBC (Pseudomonas aeruginosa [33]): > 64 µM; MBC (Pseudomonas aeruginosa [34]): > 64 µM; MBC (Pseudomonas aeruginosa [35]): > 64 µM; MBC (Pseudomonas aeruginosa [36]): > 64 µM; MBC (Pseudomonas aeruginosa [37]): > 64 µM; MBC (Salmonella typhimurium [38]): > 64 µM; MBC (Salmonella typhimurium [39]): > 64 µM; MBC [40]: > 64 µM; MBC (Acinetobacter baumannii [41]): > 64 µM; MBC (Klebsiella pneumoniae [42]): > 64 µM
